In general, inhibition refers to the relative decrease from the control value, in per cent.

One data set has as its system HT-1080. Description: Cytotoxicity against human HT-1080 cells assessed as reduction in cell viability at 10 uM incubated for 72 hrs by MTT assay relative to control. Type of data set: functional. (Tetrazolium dyes change colour on reduction, which living cells bring about.)
The subject of a further data set is MCF7. Put plainly: Cytotoxicity against human MCF7 cells assessed as reduction in cell viability at 10 uM incubated for 72 hrs by MTT assay relative to control. The format is functional.
A further data set has as its system HeLa. Put plainly: Cytotoxicity against human HeLa cells assessed as reduction in cell viability at 10 uM incubated for 72 hrs by MTT assay relative to control. The format is functional.
The subject of data set [1] is Quadruplex DNA. Description: Binding affinity to c-myc G-quadruplex DNA (unknown origin) in PBS buffer 40 mM K+ at 5 uM by spectrofluorimetric analysis. The format is nucleic-acid assay.
In data set [2] the test system is Quadruplex DNA. Put plainly: Effect on c-myc G-quadruplex DNA (unknown origin) configuration in water at 5 uM spectropolarimeter. Type of data set: ADME, nucleic-acid assay. To be noted: buffer.
The test system of data set [3] is Quadruplex DNA. Description: Effect on c-myc G-quadruplex DNA (unknown origin) configuration in PBS buffer 40 mM K+ at 5 uM by spectropolarimeter. Type of data set: ADME, nucleic-acid assay.
Data set [4] concerns Quadruplex DNA. Description: Binding affinity to c-myc G-quadruplex DNA (unknown origin) in PBS buffer (40 mM K+, pH 7.4) by spectrofluorimetric analysis. Type of data set: nucleic-acid assay.
Data set [5] is described as follows: Drug localization in nucleus of human MCF7 cells at 10 uM incubated for 4 hrs in presence of urea by propidium iodide staining based by confocal microscopy. The format is ADME, cell-based. To be noted: mcf7, 4 h.
Data set [6] is described as follows: Drug localization in nucleus of human HeLa cells at 10 uM incubated for 4 hrs in presence of urea by propidium iodide staining based by confocal microscopy. The format is ADME.
Data set [7] can be described thus: Drug localization in cytoplasm of human MCF7 cells at 10 uM incubated for 4 hrs by propidium iodide staining based by confocal microscopy. Type of data set: ADME, cell-based. To be noted: mcf7, 4 h.
The nature of data set [8]: Drug localization in nucleus of human MCF7 cells at 10 uM incubated for 4 hrs by propidium iodide staining based by confocal microscopy. The format is ADME, cell-based. To be noted: mcf7, 4 h.
Data set [9] can be described thus: Drug localization in nucleus of human HeLa cells at 10 uM incubated for 4 hrs by propidium iodide staining based by confocal microscopy. Type of data set: ADME.
The nature of data set [10]: Drug localization in cytoplasm of human HeLa cells at 10 uM incubated for 4 hrs by propidium iodide staining based by confocal microscopy. Type of data set: ADME.
Data set [11] is described as follows: Drug localization in human HeLa cells at 10 uM incubated for 4 hrs by MitoTracker Deep Red and Lyso-Tracker Red DND-99 staining based by confocal microscopy. Type of data set: ADME, cell-based.
The next data set has as its system DNA. Description: Binding affinity to ds26 DNA sequence (unknown origin) by spectrofluorimetric analysis. Type of data set: nucleic-acid assay.
Data set [12] can be described thus: Binding affinity to dx12ab DNA sequence (unknown origin) by spectrofluorimetric analysis.
Data set [13] is described as follows: Binding affinity to TBA DNA sequence (unknown origin) by spectrofluorimetric analysis.

Activity calls are given as the source filed them. The calls are words filed in the database; no cut-off is given here.

Turning to `O=c1[nH]cc(F)c(=O)[nH]1` [FLUOROURACIL], the inhibition at 10 µM in the data set on HT-1080 was determined as 65.3%; in the data set with MCF7, 41.9%; with HeLa, 44%.

Consider `O=C1C=C(c2ccc3ccccc3c2)N2C=CC=CC12C(F)(F)F` (stereo not given), for which the outcome with Quadruplex DNA [1] was Active. Also, the Activity entry with Quadruplex DNA [2] and with Quadruplex DNA [3] was “Not Active” in each case. The inhibition at 10 µM was 2.9% with HT-1080, -11.9% with MCF7 and -1.3% with HeLa.

Regarding `O=C1C=C(c2ccc(-c3ccccc3)cc2)N2C=CC=CC12c1ccccn1` (stereo not given), in the data set on Quadruplex DNA [1], the result was Active. Moreover, the Activity result in the data set on Quadruplex DNA [2] and in the data set on Quadruplex DNA [3] was “Not Active” throughout. Also, the inhibition at 10 µM in the data set on HT-1080 was found to be 32.2%; in the data set with MCF7, 14.3%; with HeLa, 5.7%.

Consider `O=C1C=C(c2cccnc2)N2C=CC=CC12c1ccccn1` (stereo not given), for which the outcome with Quadruplex DNA [1] was Active. The Activity entry with Quadruplex DNA [2] and in the data set with Quadruplex DNA [3] was “Not Active” each time. The results for the inhibition at 10 µM with HT-1080, in the data set with MCF7 and in the data set on HeLa were 30.3%, 16.5% and 3%, respectively.

With `COc1ccc(C2=CC(=O)C3(c4ccccn4)C=CC=CN23)cc1` (stereo not given), the result in the data set on Quadruplex DNA [1] was Active. In addition, the Activity result in the data set with Quadruplex DNA [2] and in the data set with Quadruplex DNA [3] was “Not Active” throughout. In addition, the inhibition at 10 µM worked out at 46.1% in the data set on HT-1080, 0.6% in the data set with MCF7 and 3.2% in the data set on HeLa.

`O=C1C=C(c2ccc([N+](=O)[O-])cc2)N2C=CC=CC12c1ccccn1` (stereo not given): in the data set with Quadruplex DNA [1], the outcome was Active. Also, the Activity entry in the data set with Quadruplex DNA [2] and in the data set on Quadruplex DNA [3] was “Not Active” throughout. For the same compound, the inhibition at 10 µM in the data set with HT-1080 was -4.2%; with MCF7, 12.5%; in the data set with HeLa, 2.9%. Also, the K result in the data set on Quadruplex DNA [4] is “inactive”.

As to `O=C1C=C(c2ccccn2)N2C=CC=CC12c1ccccn1` (stereo not given), in the data set on Quadruplex DNA [1], the outcome was Active. The Activity result in the data set with Quadruplex DNA [2] and in the data set on Quadruplex DNA [3] was “Not Active” throughout. Besides, the inhibition at 10 µM in the data set on HT-1080 was determined as 8.5%; with MCF7, 7.9%; with HeLa, 3.7%.

For the compound `O=C1C=C(c2ccccc2)N2C=CC=CC12C(F)(F)F` (stereo not given), the result with Quadruplex DNA [1] was Active. Also, the Activity result in the data set with Quadruplex DNA [2] and in the data set on Quadruplex DNA [3] was “Not Active” in each case. Further, the inhibition at 10 µM in the data set on HT-1080 is 15.9%; with MCF7 it was 18.7%; in the data set on HeLa, -4.7%. Further, in the data set on Quadruplex DNA [4], the K entry was “inactive”.

With `O=C1C=C(c2ccc3ccccc3c2)N2C=CC=CC12c1ccccn1` (stereo not given), in the data set on Quadruplex DNA [1], the outcome was Active. The Activity result in the data set with Quadruplex DNA [2] and in the data set on Quadruplex DNA [3] was “Not Active” in each case. Also, the Drug uptake entry in data set [5], in [6], in data set [7], in [8], in data set [9] and in data set [10] was “Active” each time. Moreover, the Drug uptake entry in data set [11] is “Active”. Besides, the inhibition at 10 µM was found to be 30.4% with HT-1080, 24.3% with MCF7 and 11.1% in the data set with HeLa. In addition, the K entry (in the data set with DNA; in data set [12]; in data set [13]) was “inactive” each time.

As to `O=C1C=C(c2ccncc2)N2C=CC=CC12c1ccccn1` (stereo not given), the outcome in the data set on Quadruplex DNA [1] was Active. For the same compound, the Activity result in the data set with Quadruplex DNA [2] and in the data set with Quadruplex DNA [3] was “Not Active” throughout. Moreover, the inhibition at 10 µM was found to be 1.8% in the data set on HT-1080, 19.3% in the data set on MCF7 and 5.9% with HeLa.

Consider `O=C1C=C(c2ccc(Cl)cc2)N2C=CC=CC12c1ccccn1` (stereo not given), for which the result in the data set on Quadruplex DNA [1] was Active. Further, the Activity entry in the data set with Quadruplex DNA [2] and in the data set on Quadruplex DNA [3] was “Not Active” throughout. Further, the figures for the inhibition at 10 µM with HT-1080, in the data set with MCF7 and in the data set on HeLa were 15.6%, 4.7% and 16.6%, respectively.

Values taken from ChEMBL document CHEMBL4673286, “Selective recognition of DNA parallel G-quadruplexes by 3,8a-disubstituted indolizinones” (Bioorg Med Chem, 2021).
